Test results from patent publication US12479847B2 (DANA-FARBER CANCER INSTITUTE, INC., priority 2019, dated 2025).

How the values were obtained:
Test in all cases: KINOMEscan (ScanMAX) kinase profiling
Format in all cases: binding
panel of 468 kinases [1] = target: T1, panel of 468 kinases (Homo sapiens, UniProt P49841); conditions: GSK3B; 1 μM; read-out: % control
T1 construct: purchased KINOMEscan (ScanMAX) service

panel of 468 kinases [2] = target: T2, panel of 468 kinases (Homo sapiens, UniProt Q9UIK4); conditions: DAPK2; 1 μM; read-out: % control
T2 construct: purchased KINOMEscan (ScanMAX) service
T2 sequence (Q9UIK4 whole entry): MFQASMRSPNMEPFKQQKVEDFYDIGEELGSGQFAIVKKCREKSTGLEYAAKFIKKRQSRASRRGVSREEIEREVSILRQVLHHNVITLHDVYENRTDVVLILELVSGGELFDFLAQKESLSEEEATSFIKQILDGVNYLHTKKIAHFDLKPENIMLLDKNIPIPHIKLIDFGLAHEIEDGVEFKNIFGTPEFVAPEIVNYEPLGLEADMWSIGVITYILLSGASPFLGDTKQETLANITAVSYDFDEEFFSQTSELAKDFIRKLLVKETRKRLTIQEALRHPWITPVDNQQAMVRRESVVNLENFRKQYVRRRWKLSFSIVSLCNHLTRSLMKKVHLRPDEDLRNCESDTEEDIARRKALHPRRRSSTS

panel of 468 kinases [3] = target: T3, panel of 468 kinases (Homo sapiens, UniProt Q9UEW8); conditions: STK39; 1 μM; read-out: % control
T3 construct: purchased KINOMEscan (ScanMAX) service

panel of 468 kinases [4] = target: T4, panel of 468 kinases (Homo sapiens, UniProt P42336, H1047L); conditions: PIK3CA(H1047L); 1 μM; read-out: % control
T4 construct: purchased KINOMEscan (ScanMAX) service

panel of 468 kinases [5] = target: T5, panel of 468 kinases (Homo sapiens, UniProt P07948); conditions: LYN; 1 μM; read-out: % control
T5 construct: purchased KINOMEscan (ScanMAX) service

panel of 468 kinases [6] = target: T6, panel of 468 kinases (Homo sapiens, UniProt P45984); conditions: JNK2; 1 μM; read-out: % control
T6 construct: purchased KINOMEscan (ScanMAX) service

panel of 468 kinases [7] = target: T7, panel of 468 kinases (Homo sapiens, UniProt O15264); conditions: p38-delta; 1 μM; read-out: % control
T7 construct: purchased KINOMEscan (ScanMAX) service
T7 sequence (O15264 1-365): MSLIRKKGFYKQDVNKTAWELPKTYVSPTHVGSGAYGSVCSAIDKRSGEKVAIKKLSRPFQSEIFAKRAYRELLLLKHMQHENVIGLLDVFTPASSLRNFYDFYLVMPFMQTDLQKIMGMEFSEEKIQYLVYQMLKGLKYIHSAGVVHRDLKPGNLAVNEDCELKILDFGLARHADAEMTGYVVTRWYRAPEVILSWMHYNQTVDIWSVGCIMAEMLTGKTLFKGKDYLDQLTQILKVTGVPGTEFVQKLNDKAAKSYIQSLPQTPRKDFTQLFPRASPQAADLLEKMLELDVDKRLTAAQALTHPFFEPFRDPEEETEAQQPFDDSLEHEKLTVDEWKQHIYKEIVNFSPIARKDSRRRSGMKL

panel of 468 kinases [8] = target: T8, panel of 468 kinases (Homo sapiens, UniProt P10721, V559D/V654A); conditions: KIT(V559D,V654A); 1 μM; read-out: % control
T8 construct: purchased KINOMEscan (ScanMAX) service
T8 sequence (P10721 26-976 V559D/V654A): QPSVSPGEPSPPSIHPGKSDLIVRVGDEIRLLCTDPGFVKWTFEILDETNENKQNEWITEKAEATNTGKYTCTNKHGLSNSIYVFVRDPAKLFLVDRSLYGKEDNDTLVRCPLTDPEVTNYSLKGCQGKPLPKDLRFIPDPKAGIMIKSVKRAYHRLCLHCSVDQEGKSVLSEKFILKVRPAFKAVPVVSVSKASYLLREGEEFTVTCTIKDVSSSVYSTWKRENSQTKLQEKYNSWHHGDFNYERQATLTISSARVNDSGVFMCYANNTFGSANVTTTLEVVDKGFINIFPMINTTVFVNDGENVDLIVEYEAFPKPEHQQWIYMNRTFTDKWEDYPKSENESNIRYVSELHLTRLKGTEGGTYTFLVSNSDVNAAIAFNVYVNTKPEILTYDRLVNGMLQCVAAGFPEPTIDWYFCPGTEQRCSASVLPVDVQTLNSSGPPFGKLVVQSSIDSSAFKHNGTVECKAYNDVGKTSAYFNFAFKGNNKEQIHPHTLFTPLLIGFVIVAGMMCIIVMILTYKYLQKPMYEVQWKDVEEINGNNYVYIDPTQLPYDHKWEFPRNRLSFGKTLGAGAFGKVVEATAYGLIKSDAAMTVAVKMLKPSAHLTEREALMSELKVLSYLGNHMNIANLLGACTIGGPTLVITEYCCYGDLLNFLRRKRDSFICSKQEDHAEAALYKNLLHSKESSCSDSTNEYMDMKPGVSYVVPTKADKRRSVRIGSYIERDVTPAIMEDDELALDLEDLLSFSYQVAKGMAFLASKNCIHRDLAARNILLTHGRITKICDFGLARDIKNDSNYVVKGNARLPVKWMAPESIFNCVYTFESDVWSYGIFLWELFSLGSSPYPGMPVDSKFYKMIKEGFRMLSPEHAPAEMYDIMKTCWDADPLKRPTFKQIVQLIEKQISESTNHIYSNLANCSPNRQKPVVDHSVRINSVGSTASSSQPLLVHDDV

panel of 468 kinases [9] = target: T9, panel of 468 kinases (Homo sapiens, UniProt P42685); conditions: FRK; 1 μM; read-out: % control
T9 construct: purchased KINOMEscan (ScanMAX) service
T9 sequence (P42685 whole entry): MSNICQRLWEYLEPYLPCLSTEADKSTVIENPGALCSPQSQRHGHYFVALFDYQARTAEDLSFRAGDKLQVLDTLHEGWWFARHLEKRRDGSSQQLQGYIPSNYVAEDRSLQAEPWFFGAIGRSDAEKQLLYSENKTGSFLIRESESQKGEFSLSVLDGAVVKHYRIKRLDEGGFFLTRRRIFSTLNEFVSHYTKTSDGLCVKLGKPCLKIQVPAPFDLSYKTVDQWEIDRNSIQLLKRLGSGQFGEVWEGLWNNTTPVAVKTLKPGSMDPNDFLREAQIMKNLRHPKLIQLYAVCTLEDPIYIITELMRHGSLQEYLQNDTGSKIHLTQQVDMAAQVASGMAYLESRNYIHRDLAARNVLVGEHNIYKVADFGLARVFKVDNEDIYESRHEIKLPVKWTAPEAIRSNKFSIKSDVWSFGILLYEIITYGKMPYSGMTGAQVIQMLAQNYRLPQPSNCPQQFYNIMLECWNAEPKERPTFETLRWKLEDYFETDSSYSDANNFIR

panel of 468 kinases [10] = target: T10, panel of 468 kinases (Homo sapiens, UniProt P50750); conditions: CDK9; 1 μM; read-out: % control
T10 construct: purchased KINOMEscan (ScanMAX) service
T10 sequence (P50750 whole entry): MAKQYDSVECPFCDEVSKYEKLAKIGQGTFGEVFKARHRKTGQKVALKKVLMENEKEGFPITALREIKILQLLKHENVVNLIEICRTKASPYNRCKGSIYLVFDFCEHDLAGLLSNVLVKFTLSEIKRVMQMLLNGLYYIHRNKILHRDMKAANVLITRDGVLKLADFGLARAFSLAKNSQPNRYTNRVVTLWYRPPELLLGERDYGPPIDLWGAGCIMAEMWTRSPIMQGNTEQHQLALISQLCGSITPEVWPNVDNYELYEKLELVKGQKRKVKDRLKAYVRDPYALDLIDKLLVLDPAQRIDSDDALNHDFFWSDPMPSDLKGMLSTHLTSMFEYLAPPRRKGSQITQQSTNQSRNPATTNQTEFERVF

panel of 468 kinases [11] = target: T11, panel of 468 kinases (Homo sapiens, UniProt Q16539); conditions: p38-alpha; 1 μM; read-out: % control
T11 construct: purchased KINOMEscan (ScanMAX) service
T11 sequence (Q16539 whole entry): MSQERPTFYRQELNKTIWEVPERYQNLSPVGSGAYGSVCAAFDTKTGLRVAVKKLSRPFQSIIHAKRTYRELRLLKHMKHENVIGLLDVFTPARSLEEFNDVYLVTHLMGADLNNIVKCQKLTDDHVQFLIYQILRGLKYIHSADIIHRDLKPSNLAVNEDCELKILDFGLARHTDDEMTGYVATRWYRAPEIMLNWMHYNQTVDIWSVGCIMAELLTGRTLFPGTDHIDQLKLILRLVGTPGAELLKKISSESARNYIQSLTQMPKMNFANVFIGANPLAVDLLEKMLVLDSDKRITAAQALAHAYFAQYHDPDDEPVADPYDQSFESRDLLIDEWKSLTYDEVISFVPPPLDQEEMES

panel of 468 kinases [12] = target: T12, panel of 468 kinases (Homo sapiens, UniProt Q15746); conditions: MYLK; 1 μM; read-out: % control
T12 construct: purchased KINOMEscan (ScanMAX) service
T12 sequence (Q15746 whole entry): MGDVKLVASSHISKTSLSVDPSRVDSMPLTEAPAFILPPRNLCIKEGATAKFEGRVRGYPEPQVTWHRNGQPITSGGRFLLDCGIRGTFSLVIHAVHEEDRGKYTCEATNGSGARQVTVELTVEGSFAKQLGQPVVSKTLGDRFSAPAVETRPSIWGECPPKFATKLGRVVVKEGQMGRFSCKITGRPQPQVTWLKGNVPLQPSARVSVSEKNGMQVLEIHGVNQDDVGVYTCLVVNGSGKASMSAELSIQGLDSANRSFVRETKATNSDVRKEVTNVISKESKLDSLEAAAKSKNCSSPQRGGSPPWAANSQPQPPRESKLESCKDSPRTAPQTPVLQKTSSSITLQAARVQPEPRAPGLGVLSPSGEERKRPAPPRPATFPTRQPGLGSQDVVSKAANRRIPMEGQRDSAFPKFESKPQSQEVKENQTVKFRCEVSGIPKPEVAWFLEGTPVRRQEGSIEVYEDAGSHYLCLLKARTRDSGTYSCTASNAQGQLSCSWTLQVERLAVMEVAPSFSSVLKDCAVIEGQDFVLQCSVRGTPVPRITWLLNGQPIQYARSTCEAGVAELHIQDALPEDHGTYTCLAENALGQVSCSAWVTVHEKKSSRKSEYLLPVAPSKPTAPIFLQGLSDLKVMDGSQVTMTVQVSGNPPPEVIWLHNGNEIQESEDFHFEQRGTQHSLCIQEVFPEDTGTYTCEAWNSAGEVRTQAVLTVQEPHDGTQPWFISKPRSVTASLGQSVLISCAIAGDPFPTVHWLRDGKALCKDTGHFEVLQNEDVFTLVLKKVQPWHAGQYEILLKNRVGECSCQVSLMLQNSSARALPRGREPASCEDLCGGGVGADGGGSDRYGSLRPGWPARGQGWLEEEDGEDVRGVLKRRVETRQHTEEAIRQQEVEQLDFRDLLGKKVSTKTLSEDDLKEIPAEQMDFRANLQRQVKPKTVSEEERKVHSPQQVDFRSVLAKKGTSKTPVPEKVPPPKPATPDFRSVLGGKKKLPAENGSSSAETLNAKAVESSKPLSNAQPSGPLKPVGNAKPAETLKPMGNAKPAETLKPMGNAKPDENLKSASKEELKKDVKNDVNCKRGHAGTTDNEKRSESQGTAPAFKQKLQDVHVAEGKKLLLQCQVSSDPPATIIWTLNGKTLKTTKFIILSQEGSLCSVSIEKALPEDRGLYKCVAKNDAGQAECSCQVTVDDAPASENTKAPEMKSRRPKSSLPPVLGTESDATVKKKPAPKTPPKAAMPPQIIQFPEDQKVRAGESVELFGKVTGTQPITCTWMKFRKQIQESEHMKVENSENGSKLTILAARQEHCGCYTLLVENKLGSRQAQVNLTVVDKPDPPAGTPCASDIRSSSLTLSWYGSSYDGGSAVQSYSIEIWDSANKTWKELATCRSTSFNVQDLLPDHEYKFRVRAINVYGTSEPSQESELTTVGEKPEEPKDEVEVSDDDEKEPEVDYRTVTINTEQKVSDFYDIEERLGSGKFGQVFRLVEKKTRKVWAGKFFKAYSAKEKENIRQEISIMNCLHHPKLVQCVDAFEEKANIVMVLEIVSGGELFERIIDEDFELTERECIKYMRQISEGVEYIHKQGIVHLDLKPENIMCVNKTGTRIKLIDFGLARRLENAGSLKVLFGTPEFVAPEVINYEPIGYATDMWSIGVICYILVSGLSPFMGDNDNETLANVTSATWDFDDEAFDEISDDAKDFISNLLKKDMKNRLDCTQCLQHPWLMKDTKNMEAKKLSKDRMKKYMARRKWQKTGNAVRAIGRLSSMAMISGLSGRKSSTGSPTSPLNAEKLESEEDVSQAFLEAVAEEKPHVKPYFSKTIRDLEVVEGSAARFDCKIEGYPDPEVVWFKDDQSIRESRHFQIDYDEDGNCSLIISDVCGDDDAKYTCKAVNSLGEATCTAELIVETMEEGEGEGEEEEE

panel of 468 kinases [13] = target: T13, panel of 468 kinases (Homo sapiens, UniProt P42338); conditions: PIK3CB; 1 μM; read-out: % control
T13 construct: purchased KINOMEscan (ScanMAX) service

panel of 468 kinases [14] = target: T14, panel of 468 kinases (Homo sapiens, UniProt Q8NEB9); conditions: VPS34; 1 μM; read-out: % control
T14 construct: purchased KINOMEscan (ScanMAX) service

panel of 468 kinases [15] = target: T15, panel of 468 kinases (Homo sapiens, UniProt O15111); conditions: IKK-alpha; 1 μM; read-out: % control
T15 construct: purchased KINOMEscan (ScanMAX) service
T15 sequence (O15111 1-745): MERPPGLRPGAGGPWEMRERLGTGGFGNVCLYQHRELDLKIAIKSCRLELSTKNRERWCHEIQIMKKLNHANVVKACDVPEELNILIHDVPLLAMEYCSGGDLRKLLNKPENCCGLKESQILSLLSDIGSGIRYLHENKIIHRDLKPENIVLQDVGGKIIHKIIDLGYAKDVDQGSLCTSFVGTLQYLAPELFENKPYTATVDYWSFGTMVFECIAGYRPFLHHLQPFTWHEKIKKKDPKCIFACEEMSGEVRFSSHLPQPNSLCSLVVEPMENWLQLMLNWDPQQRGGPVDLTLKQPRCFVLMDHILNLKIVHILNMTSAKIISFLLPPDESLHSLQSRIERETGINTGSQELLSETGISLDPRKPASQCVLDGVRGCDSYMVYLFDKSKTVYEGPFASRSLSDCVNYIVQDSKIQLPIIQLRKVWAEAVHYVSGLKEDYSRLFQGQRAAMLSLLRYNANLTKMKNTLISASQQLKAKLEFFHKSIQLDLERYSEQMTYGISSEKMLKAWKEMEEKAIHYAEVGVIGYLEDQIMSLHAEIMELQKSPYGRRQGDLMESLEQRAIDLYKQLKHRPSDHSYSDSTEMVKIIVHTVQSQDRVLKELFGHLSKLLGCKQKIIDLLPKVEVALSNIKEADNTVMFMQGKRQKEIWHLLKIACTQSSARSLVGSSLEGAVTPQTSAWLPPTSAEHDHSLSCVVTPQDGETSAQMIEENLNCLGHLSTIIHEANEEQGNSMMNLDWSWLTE

panel of 468 kinases [16] = target: T16, panel of 468 kinases (Homo sapiens, UniProt Q04912); conditions: MST1R; 1 μM; read-out: % control
T16 construct: purchased KINOMEscan (ScanMAX) service

T1 sequence (P49841 whole entry): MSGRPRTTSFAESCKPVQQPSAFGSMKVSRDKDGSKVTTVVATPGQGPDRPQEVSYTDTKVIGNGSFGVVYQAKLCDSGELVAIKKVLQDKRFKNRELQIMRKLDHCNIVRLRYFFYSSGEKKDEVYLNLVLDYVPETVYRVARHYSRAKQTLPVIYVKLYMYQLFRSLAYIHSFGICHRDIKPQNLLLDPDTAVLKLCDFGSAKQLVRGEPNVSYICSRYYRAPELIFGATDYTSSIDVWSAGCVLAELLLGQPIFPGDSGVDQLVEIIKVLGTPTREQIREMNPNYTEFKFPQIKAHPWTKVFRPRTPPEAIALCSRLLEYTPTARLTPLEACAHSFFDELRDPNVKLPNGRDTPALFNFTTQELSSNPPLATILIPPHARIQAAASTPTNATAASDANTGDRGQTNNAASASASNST

## CNc1nc(Nc2ccc(S(=O)(=O)N3CCC(N4CCOCC4)CC3)cc2OC)nc2[nH]cc(Cl)c12 [Compound 12, 5-chloro-N2-(2-methoxy-4-((4-morpholinopiperidin-1-yl)sulfonyl)phenyl)-N4-methyl-7H-pyrrolo[2,3-d]pyrimidine-2,4-diamine]
Panel of 468 kinases [1]
  remaining binding at 1 µM: 96%
Panel of 468 kinases [2]
  remaining binding at 1 µM: 29%
Panel of 468 kinases [3]
  remaining binding at 1 µM: 4.8%
Panel of 468 kinases [4]
  remaining binding at 1 µM: 56%
Panel of 468 kinases [5]
  remaining binding at 1 µM: 100%
Panel of 468 kinases [6]
  remaining binding at 1 µM: 26%
Panel of 468 kinases [7]
  remaining binding at 1 µM: 100%
Panel of 468 kinases [8]
  remaining binding at 1 µM: 100%
Panel of 468 kinases [9]
  remaining binding at 1 µM: 100%
Panel of 468 kinases [10]
  remaining binding at 1 µM: 100%
Panel of 468 kinases [11]
  remaining binding at 1 µM: 100%
Panel of 468 kinases [12]
  remaining binding at 1 µM: 8.8%
Panel of 468 kinases [13]
  remaining binding at 1 µM: 80%
Panel of 468 kinases [14]
  remaining binding at 1 µM: 62%
Panel of 468 kinases [15]
  remaining binding at 1 µM: 76%
Panel of 468 kinases [16]
  remaining binding at 1 µM: 100%

## CNc1nc(Nc2ccc(C(=O)N3CCC(N4CCOCC4)CC3)c3c2OCO3)nc2[nH]cc(Cl)c12 [Compound 75, (7-((5-chloro-4-(methylamino)-7H-pyrrolo[2,3-d]pyrimidin-2-yl)amino)benzo[d][1,3]dioxol-4-yl)(4-morpholinopiperidin-1-yl)methanone]
Panel of 468 kinases [1]
  remaining binding at 1 µM: 97%
Panel of 468 kinases [2]
  remaining binding at 1 µM: 28%
Panel of 468 kinases [3]
  remaining binding at 1 µM: 5.4%
Panel of 468 kinases [4]
  remaining binding at 1 µM: 86%
Panel of 468 kinases [5]
  remaining binding at 1 µM: 100%
Panel of 468 kinases [6]
  remaining binding at 1 µM: 0%
Panel of 468 kinases [7]
  remaining binding at 1 µM: 100%
Panel of 468 kinases [8]
  remaining binding at 1 µM: 94%
Panel of 468 kinases [9]
  remaining binding at 1 µM: 100%
Panel of 468 kinases [10]
  remaining binding at 1 µM: 100%
Panel of 468 kinases [11]
  remaining binding at 1 µM: 100%
Panel of 468 kinases [12]
  remaining binding at 1 µM: 18%
Panel of 468 kinases [13]
  remaining binding at 1 µM: 89%
Panel of 468 kinases [14]
  remaining binding at 1 µM: 69%
Panel of 468 kinases [15]
  remaining binding at 1 µM: 65%
Panel of 468 kinases [16]
  remaining binding at 1 µM: 100%

## CNc1nc(Nc2ccc(P3(=O)CCN(C4CCOCC4)CC3)cc2OC)nc2[nH]cc(Cl)c12 [Compound 77, 4-(4-((5-chloro-4-(methylamino)-7H-pyrrolo[2,3-d]pyrimidin-2-yl)amino)-3-methoxyphenyl)-1-(tetrahydro-2H-pyran-4-yl)-1,4-azaphosphinane 4-oxide]
Panel of 468 kinases [1]
  remaining binding at 1 µM: 100%
Panel of 468 kinases [2]
  remaining binding at 1 µM: 10%
Panel of 468 kinases [3]
  remaining binding at 1 µM: 0.5%
Panel of 468 kinases [4]
  remaining binding at 1 µM: 61%
Panel of 468 kinases [5]
  remaining binding at 1 µM: 100%
Panel of 468 kinases [6]
  remaining binding at 1 µM: 7.5%
Panel of 468 kinases [7]
  remaining binding at 1 µM: 100%
Panel of 468 kinases [8]
  remaining binding at 1 µM: 96%
Panel of 468 kinases [9]
  remaining binding at 1 µM: 100%
Panel of 468 kinases [10]
  remaining binding at 1 µM: 100%
Panel of 468 kinases [11]
  remaining binding at 1 µM: 100%
Panel of 468 kinases [12]
  remaining binding at 1 µM: 0.05%
Panel of 468 kinases [13]
  remaining binding at 1 µM: 71%
Panel of 468 kinases [14]
  remaining binding at 1 µM: 71%
Panel of 468 kinases [15]
  remaining binding at 1 µM: 81%
Panel of 468 kinases [16]
  remaining binding at 1 µM: 100%
